Assay results published in ChEMBL document CHEMBL3431459, “Roche carnitine palmitoyltransferase modulator screening data (supplementary data associated with the publication CHEMBL2216752)”.
In brackets after ≈: the same amount, converted by molar mass.

What was measured:
[1] = molecular target: T1, Carnitine O-palmitoyltransferase 1, muscle isoform (Homo sapiens, UniProt Q92523); test: SUPPLEMENTARY: Inhibition of Carnitine palmitoyltransferase 1, muscle isoform; design: species or system Muscle tissue
T1 sequence (Q92523 whole entry): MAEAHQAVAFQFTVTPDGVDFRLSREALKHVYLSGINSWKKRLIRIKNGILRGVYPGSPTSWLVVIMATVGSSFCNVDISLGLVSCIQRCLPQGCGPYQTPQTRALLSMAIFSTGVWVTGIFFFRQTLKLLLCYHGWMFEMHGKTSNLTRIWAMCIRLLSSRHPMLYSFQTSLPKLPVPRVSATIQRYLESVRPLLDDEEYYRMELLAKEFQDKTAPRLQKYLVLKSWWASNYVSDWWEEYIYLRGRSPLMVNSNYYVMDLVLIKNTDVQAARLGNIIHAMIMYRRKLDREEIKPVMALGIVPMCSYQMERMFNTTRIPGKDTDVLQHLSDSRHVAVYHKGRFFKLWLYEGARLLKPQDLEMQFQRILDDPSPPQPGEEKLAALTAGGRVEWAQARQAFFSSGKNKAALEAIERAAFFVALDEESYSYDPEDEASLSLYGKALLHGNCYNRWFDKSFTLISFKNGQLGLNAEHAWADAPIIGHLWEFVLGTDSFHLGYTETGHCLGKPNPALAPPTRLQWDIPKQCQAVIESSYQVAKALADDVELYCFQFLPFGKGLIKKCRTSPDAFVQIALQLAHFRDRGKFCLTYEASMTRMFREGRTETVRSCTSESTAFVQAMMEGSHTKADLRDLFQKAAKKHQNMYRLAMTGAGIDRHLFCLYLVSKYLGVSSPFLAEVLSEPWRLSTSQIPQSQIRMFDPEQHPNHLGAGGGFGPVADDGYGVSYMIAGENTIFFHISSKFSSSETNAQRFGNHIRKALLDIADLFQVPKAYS

[2] = molecular target: T2, Carnitine O-palmitoyltransferase 2, mitochondrial (Homo sapiens, UniProt P23786); test: (§1) SUPPLEMENTARY: Inhibition of Carnitine palmitoyltransferase 2
T2 sequence (P23786 whole entry): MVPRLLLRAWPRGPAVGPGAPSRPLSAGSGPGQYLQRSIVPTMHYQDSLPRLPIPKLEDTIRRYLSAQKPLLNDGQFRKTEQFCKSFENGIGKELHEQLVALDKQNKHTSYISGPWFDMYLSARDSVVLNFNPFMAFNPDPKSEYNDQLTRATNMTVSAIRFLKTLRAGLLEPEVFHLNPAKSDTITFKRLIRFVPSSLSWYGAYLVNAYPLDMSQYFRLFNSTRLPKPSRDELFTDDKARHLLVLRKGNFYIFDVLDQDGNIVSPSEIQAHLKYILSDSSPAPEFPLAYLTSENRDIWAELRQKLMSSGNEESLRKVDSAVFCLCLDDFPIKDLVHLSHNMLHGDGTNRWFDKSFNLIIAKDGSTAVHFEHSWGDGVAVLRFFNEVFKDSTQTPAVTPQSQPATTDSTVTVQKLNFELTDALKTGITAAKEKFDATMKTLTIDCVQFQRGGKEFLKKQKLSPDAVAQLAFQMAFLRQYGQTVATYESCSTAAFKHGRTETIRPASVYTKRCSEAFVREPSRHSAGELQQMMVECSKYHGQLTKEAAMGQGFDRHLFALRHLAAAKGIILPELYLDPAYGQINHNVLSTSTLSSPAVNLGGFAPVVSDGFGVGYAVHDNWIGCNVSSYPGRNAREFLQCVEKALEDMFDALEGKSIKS

[3] = molecular target: T3, Carnitine O-palmitoyltransferase 2, mitochondrial (Rattus norvegicus, UniProt P18886); test: as §1
T3 sequence (P18886 whole entry): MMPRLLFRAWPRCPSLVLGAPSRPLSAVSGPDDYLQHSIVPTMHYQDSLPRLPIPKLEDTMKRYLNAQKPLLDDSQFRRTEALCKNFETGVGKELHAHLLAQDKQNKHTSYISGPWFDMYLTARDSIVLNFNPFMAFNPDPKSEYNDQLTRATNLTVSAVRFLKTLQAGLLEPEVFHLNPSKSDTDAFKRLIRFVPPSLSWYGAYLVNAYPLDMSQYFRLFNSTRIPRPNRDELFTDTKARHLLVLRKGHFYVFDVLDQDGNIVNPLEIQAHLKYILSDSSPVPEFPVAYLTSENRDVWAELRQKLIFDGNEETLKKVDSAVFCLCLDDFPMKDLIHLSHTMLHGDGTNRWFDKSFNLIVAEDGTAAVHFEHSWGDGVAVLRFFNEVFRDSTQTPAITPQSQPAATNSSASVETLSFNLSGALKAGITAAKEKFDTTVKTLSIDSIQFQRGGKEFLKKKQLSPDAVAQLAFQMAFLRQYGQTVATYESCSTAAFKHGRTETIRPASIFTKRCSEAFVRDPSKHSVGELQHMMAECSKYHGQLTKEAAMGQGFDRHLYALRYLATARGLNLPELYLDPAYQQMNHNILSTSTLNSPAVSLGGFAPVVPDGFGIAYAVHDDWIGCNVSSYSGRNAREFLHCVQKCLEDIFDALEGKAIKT

[4] = molecular target: T4, Carnitine O-palmitoyltransferase 1, liver isoform (Homo sapiens, UniProt P50416); test: (§2) SUPPLEMENTARY: Inhibition of Carnitine palmitoyltransferase 1, liver isoform
T4 sequence (P50416 whole entry): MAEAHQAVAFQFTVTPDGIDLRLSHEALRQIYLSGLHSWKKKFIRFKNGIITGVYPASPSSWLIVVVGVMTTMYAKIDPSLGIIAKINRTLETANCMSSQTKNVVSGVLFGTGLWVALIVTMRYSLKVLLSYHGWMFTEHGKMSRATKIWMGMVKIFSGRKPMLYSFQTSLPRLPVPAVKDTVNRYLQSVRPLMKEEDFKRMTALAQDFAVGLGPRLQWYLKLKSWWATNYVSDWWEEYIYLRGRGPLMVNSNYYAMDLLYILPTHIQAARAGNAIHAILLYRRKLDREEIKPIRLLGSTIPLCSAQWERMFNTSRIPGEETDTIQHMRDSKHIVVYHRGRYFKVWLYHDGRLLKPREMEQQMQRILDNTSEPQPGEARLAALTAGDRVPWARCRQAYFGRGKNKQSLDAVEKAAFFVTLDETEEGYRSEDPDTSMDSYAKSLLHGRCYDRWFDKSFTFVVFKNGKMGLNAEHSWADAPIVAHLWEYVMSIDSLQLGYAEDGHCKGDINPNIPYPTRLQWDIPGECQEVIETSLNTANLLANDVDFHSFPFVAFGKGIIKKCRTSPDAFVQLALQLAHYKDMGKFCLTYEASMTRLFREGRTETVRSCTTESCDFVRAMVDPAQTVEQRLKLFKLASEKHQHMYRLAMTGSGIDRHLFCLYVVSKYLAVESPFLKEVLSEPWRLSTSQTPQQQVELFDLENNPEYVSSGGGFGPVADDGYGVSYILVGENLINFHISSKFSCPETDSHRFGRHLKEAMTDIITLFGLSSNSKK

[5] = molecular target: T5, Carnitine O-palmitoyltransferase 1, liver isoform (Rattus norvegicus, UniProt P32198); test: as §2
T5 sequence (P32198 whole entry): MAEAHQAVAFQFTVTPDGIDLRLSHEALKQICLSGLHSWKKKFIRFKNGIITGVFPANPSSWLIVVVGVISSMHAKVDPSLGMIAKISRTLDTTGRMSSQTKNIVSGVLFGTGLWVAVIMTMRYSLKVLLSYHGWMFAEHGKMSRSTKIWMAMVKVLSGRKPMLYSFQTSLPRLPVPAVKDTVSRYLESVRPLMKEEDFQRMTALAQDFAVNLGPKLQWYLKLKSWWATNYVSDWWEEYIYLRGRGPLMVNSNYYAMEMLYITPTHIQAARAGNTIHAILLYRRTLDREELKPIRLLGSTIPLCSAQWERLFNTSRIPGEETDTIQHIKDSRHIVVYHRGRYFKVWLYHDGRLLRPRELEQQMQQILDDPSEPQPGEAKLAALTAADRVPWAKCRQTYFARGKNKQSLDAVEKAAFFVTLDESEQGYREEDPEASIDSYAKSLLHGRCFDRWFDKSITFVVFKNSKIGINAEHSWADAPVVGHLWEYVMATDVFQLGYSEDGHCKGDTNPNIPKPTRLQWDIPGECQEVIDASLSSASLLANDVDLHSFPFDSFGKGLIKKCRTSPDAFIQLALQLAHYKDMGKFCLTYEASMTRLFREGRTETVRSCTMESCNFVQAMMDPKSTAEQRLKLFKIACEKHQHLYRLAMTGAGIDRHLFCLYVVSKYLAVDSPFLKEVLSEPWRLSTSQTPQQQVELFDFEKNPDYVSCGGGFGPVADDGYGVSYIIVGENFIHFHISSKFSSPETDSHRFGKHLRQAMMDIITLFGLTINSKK

[6] = SUPPLEMENTARY: Lyophilisation Solubility Assay (LYSA); assay type: physicochemical; settings: read-out: Kinetic_solubility
[7] = SUPPLEMENTARY: Lipophilicity (log D) Determination by high-throughput shake-flask; assay type: physicochemical; settings: octanol/water
[8] = SUPPLEMENTARY: PAMPA permeability assay; assay type: physicochemical; settings: read-out: Permeability

IC50 [1] [nM]	IC50 [2] [nM]	IC50 [3] [nM]	IC50 [4] [nM]	IC50 [5] [nM]	solubility kinetic [6] [µg/mL]	logD [7]	Papp [8] [×10⁻⁶ cm/s]	SMILES
1080	> 100000	> 100000	56.1	55.2	> 631	0.14	3.08	Cc1cccc(S(=O)(=O)N2CCOc3ccc(C(=O)Nc4nc(CC(=O)O)cs4)cc32)c1
618	> 100000	> 100000	22.6	11.5	54 (≈ 109 µM)	0.37	2.91	O=C(O)Cc1csc(NC(=O)c2ccc3c(c2)N(S(=O)(=O)c2cccc(Cl)c2)CCO3)n1
797	> 100000	> 100000	42.4	31.9	> 615	0.5	3.17	Cc1cc(C)cc(S(=O)(=O)N2CCOc3ccc(C(=O)Nc4nc(CC(=O)O)cs4)cc32)c1
2210	> 100000	> 100000	206	82.8	61 (≈ 122 µM)	1.1	1.98	COc1ccc(Cl)cc1S(=O)(=O)n1ccc2ccc(C(=O)Nc3ccc(CC(=O)O)cc3)cc21
1540	83900	> 100000	203	118	226 (≈ 472 µM)	0.79	2.82	COc1ccc(C)cc1S(=O)(=O)n1ccc2ccc(C(=O)Nc3ccc(CC(=O)O)cc3)cc21
> 100000	45300	66000	286	865	111 (≈ 293 µM)	1.92	3.97	Nc1ccc(-c2n[nH]c([C@H]3CCCCN3C(=O)COc3ccccc3)n2)cn1
439	> 100000	> 100000	75.4	54.5	26 (≈ 53.1 µM)	0.25	0.95	Cn1cc(S(=O)(=O)c2cccc(Cl)c2)c2cc(C(=O)Nc3nc(CC(=O)O)cs3)ccc21
1350	> 100000	> 100000	66.8	86.2	17 (≈ 36.3 µM)	1.3	2.24	O=C(O)Cc1ccc(NC(=O)c2ccc3ccn(S(=O)(=O)c4cccc(Cl)c4)c3c2)cc1
> 100000	54300	> 100000	190	428	295 (≈ 680 µM)	2.17	4.04	CC(=O)NCc1cccc(-c2n[nH]c([C@H]3CCCCN3C(=O)COc3ccccc3)n2)c1
2210	> 100000	> 100000	237	174	93 (≈ 194 µM)	0.11	2.21	COc1ccc(C)cc1S(=O)(=O)N1CCc2ccc(C(=O)Nc3ccc(CC(=O)O)cc3)cc21
6790	> 100000	> 100000	187	133	5 (≈ 10.8 µM)	2.42	4.05	Cc1cc(C)cc(S(=O)(=O)N2CCc3ccc(C(=O)Nc4ccc(CC(=O)O)cc4)cc32)c1
> 100000	2060	3700	252	596	22 (≈ 58.1 µM)	2.97	4.18	O=C([C@H]1CCCCN1C(=O)COc1ccccc1)N1CCc2ccccc2C1
> 100000	> 100000	> 100000	283	936	143 (≈ 370 µM)	2.36	11.5	CCN(CC)C(=O)c1nc([C@H]2CCCCN2C(=O)COc2ccccc2)no1
> 100000	62300	> 100000	223	376	< 1	> 3	4.39	O=C(COc1ccccc1)N1CCCC[C@@H]1c1nc(-c2ccc([N+](=O)[O-])s2)no1
